Experimental data reported in the NIST ThermoML archive (doi:10.1016/j.jct.2017.07.013).

Tests used:
[1] = refractive index (Na D-line) (dimensionless); conditions: 101.3 kPa, Liquid, Standard Abbe refractometry
[2] = 101.3 kPa, Liquid; for speed of sound: Frequency=3 MHz, Single path-length method; for mass density: Vibrating tube method
[3] = refractive index (Na D-line) (dimensionless); xn = mol fraction of the nth substance listed; conditions: 101.3 kPa, Liquid, Standard Abbe refractometry, x2 = 0
[4] = xn = mol fraction of the nth substance listed; conditions: 101.3 kPa, Liquid, x2 = 0; for speed of sound: Frequency=3 MHz, Single path-length method; for mass density: Vibrating tube method

CCCC[n+]1ccn(C)c1.O=S(=O)([N-]S(=O)(=O)C(F)(F)F)C(F)(F)F
Conditions	mass density, [2] [kg/m3]	refractive index, [1]	speed of sound, [2] [m/s]
303.15 K	1428.9	1.4245	1216.8
308.15 K	1424.1	1.4231	1205.8
313.15 K	1419.4	1.421	1195
318.15 K	1414.6	1.4195	1184.2
323.15 K	1409.9	1.4173	1173.6

COC(=O)OC [dimethyl carbonate]
Conditions	mass density, [2] [kg/m3]	refractive index, [1]	speed of sound, [2] [m/s]
303.15 K	1056.8	1.3648	1177.3
308.15 K	1050.2	1.3629	1155.6
313.15 K	1043.5	1.3626	1134.2
318.15 K	1036.8	1.3601	1113.1
323.15 K	1030	1.3586	1092.2

COC(=O)OC [dimethyl carbonate] + CCCC[n+]1ccn(C)c1.O=S(=O)([N-]S(=O)(=O)C(F)(F)F)C(F)(F)F
Conditions	mass density, [4] [kg/m3]	refractive index, [3]	speed of sound, [4] [m/s]
303.15 K	1056.8	1.3648	1177.3
308.15 K	1050.2	1.3629	1155.6
313.15 K	1043.5	1.3626	1134.2
318.15 K	1036.8	1.3601	1113.1
323.15 K	1030	1.3586	1092.2
